The subject of this assay is BXPC-3 cells. In words: Stimulation of AKT phosphorylation in BXPC-3 cells (pAKT ELISA). It is filed as cell-based. Conditions: 10 min stimulation, doses in M (Table 4), 6x-Histidine-tagged fusion proteins. On the procedure:
Fusion proteins comprising IGF-1 and a cartilage matrix binding domain were prepared as described above. Six fusion proteins were prepared: GF-Fus1 (6x-Histidine-tagged), GF-Fus2(6x-Histidine-tagged), GF-Fus3 (6x-Histidine-tagged), GF-Fus4 (6x-Histidine-tagged), GF-Fus5 (6x-Histidine-tagged), and GF-Fus6 (6x-Histidine-tagged). In order to ensure that the growth factor portion of the fusion protein was active in the fusion proteins, each construct was tested for its ability to stimulate AKT phosphorylation. Wild-type IGF-1 (wtIGF) was included as a control. Bovine chondrocytes were stimulated with a range of doses of each fusion protein, and pAKT levels were measured by ELISA.
For ligand stimulation, chondrocytes were seeded at 200,000 cells/well into 96-well tissue culture plates with 100 μL of chondrocyte culture medium with fetal bovine serum (10% v/v, Life Technologies Cat#16140071). Alternatively, BXPC-3 cells, a pancreatic adenocarcinoma cell line (ATCC® CRL-1687™), were seeded at 30,000 cells/well into 96-well tissue culture plates with 100 μL of BXPC-3 medium (RPMI-1640, e.g., ATCC® 30-2001™), with L-glutamine (2 mM), Penicillin-Streptomycin (1×, Gibco® 15140-122), Fetal Bovine Serum (10% v/v, Life Technologies Cat#16140071)). After 24 hrs, both chondrocytes and BXPC-3 cells were rinsed with 100 μL of sterile PBS (pH=7.4) per well and 100 μl of chondrocyte or BXPC-3 culture medium (without fetal bovine serum) was added to the corresponding cell type. After an additional 24 hrs, cells were stimulated with the doses of fusion proteins set forth in Table 4 by adding 25 μL of fusion protein at a concentration 5 times greater than the concentration listed in Table 4 to the 100 μL of medium already in the wells. After 10 min of stimulation, fusion protein was removed and wells were rinsed in ice cold PBS (pH=7.4). 50 μL/well of cell extraction buffer (Invitrogen cat# FNN0011) was added and incubated with shaking at 4° C. for 30 minutes. Lysates were then frozen at −80° C.
Corning high binding 384 well black ELISA plates (cat#3577) are coated with 30 μL of capture antibody at 4 μg/mL (anti-AKT1 total capture antibody, Upstate, Cat#05-591MG) in PBS (pH=7.4) for 16 hours at room temperature, washed and blocked with […] 2% bovine serum albumin (Sigma Cat# A3294) in PBS (pH=7.4) for 1 hour at room temperature. 20 μL of thawed lysates or recombinant pAKT standards (ten 2-fold serial dilutions of 400 ng recombinant human AKT, active (Upstate, Cat#14-276) in PBS (pH=7.4) containing 50% v/v Cell extraction buffer (Invitrogen Cat#FNN0011), 1% bovine serum albumin (Sigma Cat# A3294), 0.05% Tween20) are applied to the coated plate and incubated for 2 hours at room temperature. After washing 3 times with 100 μL/well of 0.05% Tween-20/PBS (pH=7.4) bound phospho-AKT is detected using Phospho-AKT (Ser473)(587F11)-biotinylated (Cell Signaling, Cat#5102), streptavidin-HRP (R&D Systems Cat# DY998, Part #890803), SuperSignal ELISA PicoChemiluminescent Substrate (Thermo Scientific Cat#37069), using a luminometer to detect light emissions at 425 nm.
(ELISA stands for enzyme-linked immunosorbent assay.)
As to “GF-Fus3: C-terminal fusion IGF-1(LR3)-PRELP heparin binding domain”, the “logEC50 Mean” value is recorded as −9.231.

As to “GF-Fus5: IGF-1(LR3) fused to CNA35 CB domain”, the “logEC50 Mean” value was −8.969. The result for “wtIGF: Wild-type IGF-1 (R&D systems 291-G1), control [reference compound]” reads −9.081.

Regarding “GF-Fus1: IGF-1 variant polypeptide Long [R^3]-IGF-1, no fused binding domain; used 6x-Histidine-tagged as control [reference compound]”, the “logEC50 Mean” value is −8.605. Then “GF-Fus6: IGF-1(LR3) fused to CNA344 CB domain”, with −8.832.
